Data from PubChem BioAssay (NCI).
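These data come from cells grown in 96-well plates and exposed to compound for 48 hours at five concentrations. At the TGI there is no net growth.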

Key:
Assay in all cases: inhibition of tumour cell growth, NCI panel, 48 h
[1] = tested on: SNB-78 CNS
[2] = tested on: SK-OV-3 ovarian
[3] = tested on: RPMI-8226 leukemia
[4] = tested on: COLO 205 colon
[5] = tested on: HCT-116 colon
[6] = tested on: SK-MEL-2 melanoma
[7] = tested on: HOP-92 NSCLC
[8] = tested on: A498 renal
[9] = tested on: HCC-2998 colon
[10] = tested on: CCRF-CEM leukemia
[11] = tested on: A549 NSCLC
[12] = tested on: MOLT-4 leukemia
[13] = tested on: UO-31 renal
[14] = tested on: XF 498 CNS
[15] = tested on: KM20L2 colon
[16] = tested on: OVCAR-5 ovarian
[17] = tested on: SNB-19 CNS
[18] = tested on: LXFL 529 NSCLC
[19] = tested on: SK-MEL-28 melanoma
[20] = tested on: CAKI-1 renal
[21] = tested on: M19-MEL melanoma
[22] = tested on: NCI-H23 lung
[23] = tested on: HOP-62 NSCLC
[24] = tested on: TK-10 renal
[25] = tested on: EKVX NSCLC
[26] = tested on: RXF 393 renal
[27] = tested on: KM12 colon
[28] = tested on: RXF-631 renal
[29] = tested on: DLD-1 colon
[30] = tested on: SF-268 CNS
[31] = tested on: DMS 114 small cell lung
[32] = tested on: SN12C renal
[33] = tested on: OVCAR-4 ovarian
[34] = tested on: SW-620 colon
[35] = tested on: OVCAR-8 ovarian
[36] = tested on: NCI-H226 lung
[37] = tested on: UACC-62 melanoma
[38] = tested on: NCI-H522 lung
[39] = tested on: M14 melanoma
[40] = tested on: U251 CNS
[41] = tested on: SF-295 CNS
[42] = tested on: DMS 273 small cell lung
[43] = tested on: LOX IMVI melanoma
[44] = tested on: SK-MEL-5 melanoma
[45] = tested on: HCT-15 colon
[46] = tested on: ACHN renal
[47] = tested on: K-562 leukemia
[48] = tested on: UACC-257 melanoma
[49] = tested on: IGROV1 ovarian
[50] = tested on: NCI-H460 lung
[51] = tested on: SF-539 CNS
[52] = tested on: HT29 colon
[53] = tested on: SR leukemia
[54] = tested on: SNB-75 CNS
[55] = tested on: HL-60(TB) leukemia
[56] = tested on: 786-0 renal
[57] = tested on: OVCAR-3 ovarian
[58] = tested on: MALME-3M melanoma

COc1ccc(OC)c(NC(=O)C(=O)C(C(=O)c2ccccc2F)C2OC(=O)c3ccccc32)c1 (stereo not drawn)
TGI [1]: > 100 µM | TGI [2]: > 100 µM | TGI [3]: > 100 µM | TGI [4]: > 100 µM | TGI [5]: > 100 µM | TGI [6]: > 100 µM | TGI [7]: > 100 µM | TGI [8]: > 100 µM | TGI [9]: > 100 µM | TGI [10]: 91.1 µM | TGI [11]: > 100 µM | TGI [12]: > 100 µM | TGI [13]: > 100 µM | TGI [14]: > 100 µM | TGI [15]: > 100 µM | TGI [16]: > 100 µM | TGI [17]: > 100 µM | TGI [18]: > 100 µM | TGI [19]: > 100 µM | TGI [20]: > 100 µM | TGI [21]: > 100 µM | TGI [22]: > 100 µM | TGI [23]: > 100 µM | TGI [24]: > 100 µM | TGI [25]: > 100 µM | TGI [26]: 70.7 µM | TGI [27]: > 100 µM | TGI [28]: > 100 µM | TGI [29]: > 100 µM | TGI [30]: > 100 µM | TGI [31]: > 100 µM | TGI [32]: > 100 µM | TGI [33]: > 100 µM | TGI [34]: > 100 µM | TGI [35]: > 100 µM | TGI [36]: 54.5 µM | TGI [37]: > 100 µM | TGI [38]: 71.5 µM | TGI [39]: > 100 µM | TGI [40]: 49.5 µM | TGI [41]: > 100 µM | TGI [42]: > 100 µM | TGI [43]: > 100 µM | TGI [44]: > 100 µM | TGI [45]: > 100 µM | TGI [46]: > 100 µM | TGI [47]: > 100 µM | TGI [48]: > 100 µM | TGI [49]: > 100 µM | TGI [50]: > 100 µM | TGI [51]: 82.2 µM | TGI [52]: > 100 µM | TGI [53]: 89.1 µM | TGI [54]: > 100 µM | TGI [55]: > 100 µM

C/C(=N/N(C=O)C[n+]1ccccc1)C(CN(CC(C)C)CC(C)C)C(=O)Nc1ccc(C)cc1C (stereo not drawn)
TGI [2]: > 100 µM | TGI [3]: > 100 µM | TGI [4]: > 100 µM | TGI [5]: > 100 µM | TGI [6]: > 100 µM | TGI [7]: > 100 µM | TGI [8]: > 100 µM | TGI [9]: > 100 µM | TGI [10]: > 100 µM | TGI [11]: > 100 µM | TGI [12]: > 100 µM | TGI [13]: 84.3 µM | TGI [15]: > 100 µM | TGI [16]: > 100 µM | TGI [17]: > 100 µM | TGI [56]: > 100 µM | TGI [19]: > 100 µM | TGI [20]: > 100 µM | TGI [22]: > 100 µM | TGI [23]: > 100 µM | TGI [24]: > 100 µM | TGI [25]: > 100 µM | TGI [26]: > 100 µM | TGI [27]: > 100 µM | TGI [28]: > 100 µM | TGI [29]: > 100 µM | TGI [30]: > 100 µM | TGI [31]: > 100 µM | TGI [32]: > 100 µM | TGI [33]: > 100 µM | TGI [34]: > 100 µM | TGI [35]: > 100 µM | TGI [37]: > 100 µM | TGI [57]: > 100 µM | TGI [38]: > 100 µM | TGI [39]: > 100 µM | TGI [41]: > 100 µM | TGI [44]: > 100 µM | TGI [46]: > 100 µM | TGI [47]: > 100 µM | TGI [48]: > 100 µM | TGI [49]: > 100 µM | TGI [50]: > 100 µM | TGI [51]: > 100 µM | TGI [52]: > 100 µM | TGI [53]: > 100 µM | TGI [58]: > 100 µM | TGI [55]: > 100 µM
